Earlier results, collected in US20220287347A1, “PEPTIDES FOR TREATING MUSCLE ATROPHY” (NURITAS LIMITED, priority 2019, published 2022).

Experiments:
[1] = binding to lipoproteins

| Structure (SMILES) | fraction unbound [1] | half-life in humans |
| --- | --- | --- |
| C[C@@H](O)[C@@H]1NC(=O)[C@H](CCCCN)NC(=O)[C@@H](Cc2c[nH]c3ccccc23)NC(=O)[C@H](Cc2ccccc2)NC(=O)[C@@H](NC(=O)[C@H](N)Cc2ccccc2)CSSC[C@@H](C(=O)N[C@H](CO)[C@@H](C)O)NC1=O [octreotide] | 0.65 | about 100 min |
| NC(=O)CC[C@@H]1NC(=O)[C@H](Cc2ccccc2)NC(=O)[C@H](Cc2ccc(O)cc2)NC(=O)[C@@H](N)CSSC[C@@H](C(=O)N2CCC[C@H]2C(=O)N[C@@H](CCCN=C(N)N)C(=O)NCC(N)=O)NC(=O)[C@H](CC(N)=O)NC1=O [vasopressin] |  | 10 to 35 min |
